Data as given in patent US20090318399A1, “PHARMACEUTICAL COMPOSITION AND EXTRACT OF PORIA FOR TREATING A DISEASE INDUCED FROM IMMUNE DISORDER” (Sinphar Pharmaceutical Co., Ltd., priority 2008, published 2009).

System: immune cells in BALF of OVA-sensitized mice
Test: Percentage of subpopulation of immune cells in BALF
Assay type: in vivo, BALB/c mice
Conditions: Pred group: 0.1 mg Prednisolone per day for 5 days; % of total BALF cells; mean±SD
Source text: In this example the mice were induced to become allergic by using ovalbumin (OVA) as an allergen, and the mice were confirmed suffering the induced asthma from the appearance of OVE-specific IgE antibody in the mice. Mice in different groups were fed with a Poria extract or pure lanostane compound during the experimental period, and each mouse was subjected to an airway hyperresponsiveness test after one-month feeding, from which an important index reflecting the severe degree of the asthma of the mouse was determined. In this example different immune cells in bronchoalveolar lavage fluid (BALF) of the mice were also observed as to whether they particularly eosinophils and neutrophils were affected. Further, a chemoattractant factor, Eotaxin, was an important observation factor in this example for observing whether the secretion of cytokines changed dramatically.
(1) Experimental animal: Inbred BALB/c female mice were maintained by standard laboratory chow ad libitum. Room temperature was maintained at 19-24° C. and relative humidity at 50-70%. […]
As all groups of mice had finished of AHR analysis, they were sacrificed on next day. […] The total cell numbers were determined with 0.5 ml CM-10, wherein the density of cells was adjusted to 3×10^5 cells/ml. […] Two hundreds of leukocytes were counted on each slide, which includes four different cells, eosinophil, neutrophil, lymphocyte and monocyte. […]

C[C@]12C=CC(=O)C=C1CC[C@@H]1[C@@H]2[C@@H](O)C[C@@]2(C)[C@H]1CC[C@]2(O)C(=O)CO [Pred, Prednisolone]
Monocyte % in BALF: 13.3 ± 7.8%
Neutrophil % in BALF: 0.8 ± 0.8%
